Test results as given in patent US8188087B2, “Crystalline (3-cyano-1H-indol-7-yl)-[4-(4-fluorophenethyl) piperazin-1-yl]methanone phosphate” (Merck Patent GmbH, priority 2006, dated 2012).
Structures can show the parent of a compound that is named as a salt. Blank lines part the entries; values can stand above or below the molecule they belong to.

Tests used:
Format in all cases: physicochemical
[1] = Solid-state (polymorphic/crystal form) stability
Text: It is disadvantageous for a formulation to comprise a plurality of crystal forms of an active ingredient in that they may have different bioavailabilities and/or stability. Even slight variations in production conditions may compromise the reproducibility of the crystal form and therefore the performance of the formulated product. In addition, poorly crystalline materials are typically less desirable than highly crystalline materials because they are generally more difficult to handle during formulation processes.
The Anhydrate is not stable under the conditions necessary for obtaining an SSNMR spectrum.

[2] = Solubility in the crystallization/isolation solvent systems; settings: all of the solvent systems tested; isolation temperatures about 5° C. to about 22° C.
Protocol: Suitable solvents include, but are not limited to, methanol, ethanol, propan-1-ol, propan-2-ol, butan-2-ol, tetrahydrofuran, acetone, and the like. Suitable temperatures for salt formation typically range between about 50° C. to about 75° C. depending on the solvent. One preferred temperature range for salt formation is from the temperature at which the (3-cyano-1H-indol-7-yl)-[4-(4-fluorophenethyl)piperazin-1-yl]methanone is soluble up to the reflux temperature of the solvent. […] However, this may result in a slurry to slurry conversion of (3-cyano-1H-indol-7-yl)-[4-(4-fluorophenethyl)piperazin-1-yl]methanone to the salt.
Isolation temperatures typically range between about 5° C. and about 22° C.

[3] = Water retained in the crystal lattice in equilibrium with relative humidity; settings: in equilibrium with a relative humidity of about 5% to about 95%
Text: Two new crystalline forms are characterized by, inter alia, x-ray powder diffractometry, or alternatively, solid state nuclear magnetic resonance spectroscopy. One preferred embodiment of the present invention provides for a crystalline (3-cyano-1H-indol-7-yl)-[4-(4-fluorophenethyl)piperazin-1-yl]methanone phosphate hydrate Form I (Form I). Form I is characterized as a non-stoichiometric hydrate in that it retains water about 1.2% by weight of compound (up to approximately ⅓ mole of water per mole of compound) within the crystalline lattice when in equilibrium with a relative humidity of about 5% to about 95%.

SMILES: N#Cc1c[nH]c2c(C(=O)N3CCN(CCc4ccc(F)cc4)CC3)cccc12 [hydrochloride salt, (3-cyano-1H-indol-7-yl)-[4-(4-fluorophenethyl)piperazin-1-yl]-methanone, reference compound]
- solid form stability upon compression ([1]; upon compression during the manufacturing process): converts from a single polymorphic form into a second, poorly crystalline, metastable polymorphic form

- solubility in solvent systems tested [2]: low solubility
SMILES: N#Cc1c[nH]c2c(C(=O)N3CCN(CCc4ccc(F)cc4)CC3)cccc12.O=P(O)(O)O [The salt, (3-Cyano-1H-indol-7-yl)-[4-(4-fluorophenethyl)piperazin-1-yl]methanone phosphate]

- water retained within the crystalline lattice [3]: about 1.2 % by weight of compound
- water retained within the crystalline lattice (molar) [3]: ⅓
- crystal form conversion on dehydration ([1]; dehydrating the solid at 0% RH and ambient temperature): may be converted to the Anhydrate
SMILES: N#Cc1c[nH]c2c(C(=O)N3CCN(CCc4ccc(F)cc4)CC3)cccc12.O=P(O)(O)O [Form I, (3-cyano-1H-indol-7-yl)-[4-(4-fluorophenethyl)piperazin-1-yl]methanone phosphate hydrate Form I]

- crystal form stability under anhydrous conditions ([1]; anhydrous conditions): stable
- crystal form stability under SSNMR conditions ([1]; conditions necessary for obtaining an SSNMR spectrum): not stable
- crystal form conversion on exposure to water ([1]; exposure to water, including atmospheric humidity): may be converted to Form I
SMILES: N#Cc1c[nH]c2c(C(=O)N3CCN(CCc4ccc(F)cc4)CC3)cccc12.O=P(O)(O)O [Anhydrate, (3-cyano-1H-indol-7-yl)-[4-(4-fluorophenethyl)piperazin-1-yl]methanone phosphate anhydrate]
